Test results reported in patent EP0007294A2, “Membrane stabilizing compounds having beta-receptor blocking activity, their preparation, method for treatment of arrhythmic conditions, and pharmaceutical preparations containing same” (priority 1978, dated 1980).
Read-outs that look alike come from different tables or passages of the source.

Columns and labels:
[1] = tested on: ouabain-induced arrhythmias; test: Ouabain-induced arrhythmias in anesthetized guinea-pigs; type: in vivo; conditions: for A-A EFFECT IN NUMBER OF ANIMALS: animals with antiarrhythmic effect / animals tested; for LOWEST FREQUENCY: frequency of ventricular premature beats after test solution; for ASYSTOLE: time of asystole under continued ouabain; for V-FIB: time of ventricular fibrillation under continued ouabain
Method: Guinea-pigs of either.sex (300-400 g) were anesthetized with urethane 1,4 g/kg i.p. and tracheotomized. ECG, lead II was picked up with needle electrodes and was registered continuously throughout the experiment. Two i.v. catheters were inserted: one for the administration of ouabain, the other for the test solution.
The experimental design for the study of antiarrhythmic activities is schematically shown in the head of Table 2. The arrhythmia was induced by automatic infusion of ouabain, 18 µg/kg/60" every two minutes for twelve minutes and thereafter 9 µg/kg/30" every two minutes throughout the whole experiment and the infusion was not stopped until asystole occurred. As soon as the frequency of ventricular premature beats (VPB) had passed 50 per cent, the test solution was given i.v. (0,2 ml/min) during 2 min. (see head of Table 2).

[2] = Conscious dogs with ligation of a coronary artery according to Harris: ectopics and convulsions; type: in vivo; conditions: in vivo
Text: (§1) Male beagle dogs, 7-13 kg, undergo two days prior to the test a surgical ligation of a coronary artery. On the day of the test the conscious dog is secured in a canvas sling in a standing position and given increasing doses of the test compounds by intravenous administration. ECG, blood pressure etc are monitored and attention is paid to all CNS-effects. The dogs have almost 100 percent of ectopics prior to administration of the compound to be tested. Effects of the test drug on the frequency of ectopics are calculated from ECG. The accumulative end doses giving 50% and 90% reduction of ectopics as well as the ED50 values which give convulsions (side-effect) are measured and given below in Table 3. The value for convulsions is a mean value for 3-5 dogs.
(§2) x) The value given is the final value in a series of doses 0.5 + 1 + 2 + 4 + 8 mg/kg i.v. giving 50% reduction of ectopics. 30 min interval between doses.
(§3) Table 3: Antiarrythmic effect and CNS-effects of four β-receptor blockers, a membrane stabilizer, and ten new compounds with combined β-blocking and membrane stabilizing effect.

[3] = tested on: ectopics; test: as above; type: in vivo; conditions: Canis lupus familiaris, iv.; for ED50: accumulative end dose giving 50% reduction of ectopics, read-out: Conscious dog Harris ligation Ectopics -50%; for ED90: accumulative end dose giving 90% reduction of ectopics, read-out: Conscious dog Harris ligation Ectopics -90%
Text: as §1, §2, §3

[4] = Alternative chloroform test on mice: ventricular tachycardia inhibition and ataxia; type: in vivo; conditions: mouse, in vivo
Method: (§4) In an alternative chloroform test on mice the ventricular tachycardia inhibition by the test compounds are observed. Thereby the test solution is given subcutaneous and the animal is observed for CNS-effects for 20 min. The mouse is put into a chamber with chloroform until it stops breathing (approx 30 sec.). The animal is then secured on a cork-board and ECG is monitored. If the ventricular rythm is less than 520 beats per min., the animal was protected against ventricular tachycardia. Groups of 10 animals were tested for each dose-level'and the ED50-values have been calculated therefrom. During the test the side-effect ataxia (incordination of movements) is observed.
(§5) In Table 5, as shown, the new compounds tested exerted antiarrhythmic effects also in this te-st.

[5] = tested on: chloroform induced ventricular tachy-cardia; test: as above; type: in vivo; conditions: Mus musculus; sc.; mice, chloroform; groups of 10 animals per dose-level
Method: as §4, §5

[6] = tested on: chloroform-induced ventricular arrhythmias; test: Chloroform-induced ventricular arrhythmias (fibrillation) in mice, intraperitoneal dose
Text: Mice were given an intraperitoneal dose of the test compound. Twenty minutes after dose, they were suffocated in chloroform vapor.- When the animals stopped breathing, the chest was opened to inspect for fibrillation. If the heart was not fibrillating, it was prodded.
Signs of CNS toxicity were noted during the 20-minute interval between dosing and challenge.
"Protected" means number of animals protected against CHC13- induced ventricular fibrillation.

Row | Structure (SMILES) | A-A EFFECT IN NUMBER OF ANIMALS ([1]; dose 0.3 mg/kg i.v.) | A-A EFFECT IN NUMBER OF ANIMALS ([1]; dose 1.0 mg/kg i.v.) | LOWEST FREQUENCY ([1]; dose 0.3 mg/kg i.v.) [%] | LOWEST FREQUENCY ([1]; dose 1.0 mg/kg i.v.) [%] | ASYSTOLE ([1]; dose 0.3 mg/kg i.v.) [min] | ASYSTOLE ([1]; dose 1.0 mg/kg i.v.) [min] | V-FIB ([1]; dose 0.3 mg/kg i.v.) [min] | V-FIB ([1]; dose 1.0 mg/kg i.v.) | TD50 ([2]; iv., conscious dog, mean value for 3-5 dogs, read-out: ED50 Convulsive) [mg/kg] | ED50 [3] [mg/kg] | ED90 [3] [mg/kg] | TD50 at 20 min ([4]; sc., mice, observed for 20 min, read-out: Ataxia ED50) [mg/kg] | ED50 [5] [mg/kg] | Number of Animals Dead ([6]; dose 100 mg/kg intraperitoneal, 10 treated) | Number of Animals Protected ([6]; dose 100 mg/kg intraperitoneal, 10 treated, protected against CHCl3-induced ventricular fibrillation) | Number of Animals Convulsive ([6]; mouse, in vivo, ip, 100 mg/kg) | Number of Animals LRR ([6]; mouse, in vivo, ip, 100 mg/kg) | TD50 ([2]; dog, iv) [mg/kg] | TD50 at 20 min ([4]; sc) [mg/kg]
1 | CC(C)NC[C@@H](O)COc1cccc2ccccc12 [D-Propranolol] | 6/8 | 6/6 | 36±5 | 5±3 | 22 ± 1 | 29 ± 1 | 14 ± 1 | 23 ± 2 min | 8 | 1 | 4 | ~30 | ~8 |  |  |  |  |  | 
2 | COCCc1ccc(OCC(O)CNCCc2ccccc2)c(Br)c1 (stereo not shown) [EX 3] | 5/6 | 6/6 | 26±7 | 13±7 | 34 ± 1 | 41 ± 2 | 27 ± 1 | 35 ± 2 min |  |  |  |  |  |  |  |  |  |  | 
3 | COCCc1ccc(OCC(O)CNC(C)Cc2ccc(O)cc2)c(Br)c1 (stereo not shown) [EX 4, 3-[1-methyl-2-i4-hydroxyphenyl)-ethylaminol-1-[4-(2-methoxyethyl)-2-bromophenoxy]-propanol-2] | 3/6 | 6/6 | 31±14 | 6±3 | 27 ± 1 | 41 ± 3 | 19 ± 1 | 31±3 (N=4) min |  |  |  |  |  |  |  |  |  |  | 
4 | COCCc1ccc(OCC(O)CNCCc2ccccc2)cc1 (stereo not shown) [Ex. 1] | 4/8 | 9/9 | 38±13 | 9±4 | 28 ± 1 | 38 ± 4 | 19 ± 1 | 31 ± 4 min |  |  |  |  |  | 0 | 9 | 1 | 0 |  | 
5 | COCc1ccc(OCC(O)CNCc2ccccc2)cc1 (stereo not shown) [Ex. 6, 3-phenylmethylamino-1-[4-methoxymgthylphenoxy]-propanol-2] |  |  |  |  |  |  |  |  |  | 8 | > 16 |  | ~200 |  |  |  |  | 14 | ~70
6 | COCc1ccc(OCC(O)CNCCc2ccccc2)cc1 (stereo not shown) [Ex. 7] |  |  |  |  |  |  |  |  |  | 4 | 8 |  | ~50 |  |  |  |  | > 8 | ~100
7 | COCc1ccc(OCC(O)CNCCCCc2ccccc2)cc1 (stereo not shown) [Ex. 8, 3-[4-phenylbutylamino)-1-(4-methoxymethylphenoxy)-propanol-2] |  |  |  |  |  |  |  |  |  | 4 | > 8 |  |  |  |  |  |  | 8 | 
8 | COCCc1ccc(OCC(O)CNCc2ccccc2)cc1 (stereo not shown) [Ex. 9, 3-phenylmethylamino-1-[4-(2-methoxyethyl)phenoxy]-propanol-2] |  |  |  |  |  |  |  |  |  | 2 | 4 |  | 35 |  |  |  |  | 8 | 60
9 | COCCc1ccc(OCC(O)CNCCCc2ccccc2)cc1 (stereo not shown) [Ex. 10, 3-(3-phenylpropylamino)-1-[4-(2-methoxyethyl)phenoxy]-propanol-2] |  |  |  |  |  |  |  |  |  | 2 | 4 |  | 3 |  |  |  |  | > 8 | > 50
